Patent US20180327367A1, “MACROCYCLIC BROAD SPECTRUM ANTIBIOTICS” (priority 2015, published 2018)
Converted amounts (≈) assume the structure as drawn. Where two headings read alike, the source gives them in different places.

Assays:
Format in all cases: cell-based
[1] = tested on: Escherichia coli ATCC 25922; assay: Minimum inhibitory concentration, broth micro-dilution (CLSI), E. coli; settings: for MIC: Escherichia coli, ATCC25922, 22 h
Procedure: Cells were inoculated onto plates of Trypyticase Soy Agar or Luria Agar respectively and grown at 35° C. for 20 hours. Inocula suspensions were prepared by scraping cells into 1 mL of testing media (cation adjusted Mueller Hinton Broth supplemented with 0.002% v/v Tween-80) and diluting to a final OD600 nm of 0.01.
(§1) Test compounds were prepared in DMSO at a concentration of 10 mg/mL. […] In protocol 2, the compound stocks were diluted into testing media at a concentration of 4 μg/mL and serial 2-fold dilutions were made in the same media, in 96-well U bottom microtiter dishes, for a total of 10 compound concentrations. In protocol 3, compound stocks were diluted into testing media at a concentration of 0.5 μg/mL, with serial 2-fold dilutions conducted as described above. […] Inocula suspensions were added to the 2-fold serial dilutions of test compounds to a final density of OD OD600 nm of 0.0005 and incubated at 35° C. for 22 hours.

[2] = tested on: Methicillin Resistant Staphylococcus aureus strain USA 300, NRS384; assay: Minimum inhibitory concentration, broth micro-dilution (CLSI), S. aureus; settings: for MIC: Staphylococcus aureus, MRSA / NRS 384 / USA300, 22 h
Procedure: (§2) In vitro antimicrobial activity of each compound was determined by measuring minimal inhibitor concentrations (MICs) using the broth micro-dilution technique as approved by the Clinical and Laboratory Standards Institute (CLSI) (Methods for Dilution Antimicrobial Susceptibility Tests for Bacteria that Grow Aerobically; Approved Standard—Eighth Edition. CLSI document M07-A8. Wayne, Pa.: Clinical and Laboratory Standards; 2009). Antibacterial activity was measure against three strains of bacteria: a Methicillin Resistant Staphylococcus aureus strain USA 300, NRS384 (S. aureus); a strain of Escherichia coli MC4100 harboring the IMP4213 (E. coli IMP), which results in increased outer-membrane permeability (B Martin and Silhavy T. Imp/OstA is required for cell envelope biogenesis in Escherichia coli. (2002) Molecular Microbiology, 45(5), 1289-1302), and Escherichia coli ATCC 25922 (E. coli), a clinically relevant Gram-negative strain. Cells were inoculated onto plates of Trypyticase Soy Agar or Luria Agar respectively and grown at 35° C. for 20 hours. Inocula suspensions were prepared by scraping cells into 1 mL of testing media (cation adjusted Mueller Hinton Broth supplemented with 0.002% v/v Tween-80) and diluting to a final OD600 nm of 0.01.
as §1

[3] = tested on: Escherichia coli MC4100 harboring the IMP4213 (E. coli IMP); assay: microbe, parasite or virus in culture; settings: for MIC (μg/mL) E. coli IMP: E. coli MC4100 IMP4213, increased outer-membrane permeability; for MIC: Escherichia coli, 22 h
Procedure: as §2, §1

[4] = E. coli ATCC 25922, 35° C., 22 hours
[5] = MRSA USA 300 NRS384, 35° C., 22 hours
[6] = E. coli ATCC 25922, 35° C., 22 hours, read-out: MIC (μg/mL) E. coli
[7] = MRSA USA 300 NRS384, 35° C., 22 hours, read-out: MIC (μg/mL) S. aureus
[8] = read-out: MIC (μg/mL) E. coli IMP, E. coli MC4100 IMP4213, increased outer-membrane permeability, 35° C., 22 hours

| SMILES | MIC (μg/mL) S. aureus [2, 5] | MIC [1, 6] | MIC [2, 7] | MIC [3, 8] | other results |
| --- | --- | --- | --- | --- | --- |
| Cc1cc(C2CC2c2ccccc2)ccc1C(=O)N[C@@H](CCN)C(=O)N(C)[C@@H]1C(=O)N[C@@H](C)C(=O)N[C@H](C(=O)NCC#N)Cc2ccc(OCCN)c(c2)-c2cc1ccc2OCCN (mixture of isomers) [Compound 439] | 0.047 µg/mL | – | – | – | MIC (μg/mL) E. coli [1, 4]: 0.5 µg/mL; MIC (μg/mL) E. coli IMP ([3]; 35° C., 22 hours): 0.0078 µg/mL |
| CCCCc1ccc(NC(=O)CC(CCN)C(=O)N(C)[C@@H]2C(=O)N[C@@H](C)C(=O)N[C@H](C(=O)NCC#N)Cc3ccc(OCCN)c(c3)-c3cc2ccc3OCCN)c(C)c1 (mixture of isomers) [Compound 456] | – | 64 µg/mL | 0.25 µg/mL | 0.5 µg/mL | – |
| C[C@@H]1NC(=O)[C@@H](N(C)C(=O)[C@H](CCCCN)NC(=O)c2ccc(-c3ccc(Cl)cc3)cc2)c2ccc(OCC(O)CN)c(c2)-c2cc(ccc2OCC(O)CN)C[C@@H](C(=O)NCC#N)NC1=O (mixture of isomers) [Compound 515] | – | 4 µg/mL | 0.094 µg/mL | 0.063 µg/mL | – |
| CCCCCCCCCC(=O)N[C@H](C(=O)N[C@@H](CCN)C(=O)N(C)[C@@H]1C(=O)N[C@@H](C)C(=O)N[C@H](C(=O)NCC#N)Cc2ccc(OCCN)c(c2)-c2cc1ccc2OCCN)C(C)O (single isomer, unassigned) [Compound 357-P1] | – | – | – | 0.5 µg/mL (≈ 0.56 µM) | MIC ([1]; read-out: MIC (μg/mL) E. coli, E. coli ATCC 25922, 35° C., 22 hours): 64 µg/mL (≈ 71.7 µM); MIC ([2]; read-out: MIC (μg/mL) S. aureus, MRSA USA 300 NRS384, 35° C., 22 hours): 0.5 µg/mL (≈ 0.56 µM) |
| CCCCCCCc1ccc(C(=O)NC(CCNC)C(=O)N(C)[C@@H]2C(=O)N[C@@H](C)C(=O)N[C@H](C(=O)NCC#N)Cc3ccc(OCCN)c(c3)-c3cc2ccc3OCCN)c(C)c1 (single isomer, unassigned) [Compound 490-P1] | 0.073 µg/mL (≈ 0.0841 µM) | – | – | 0.068 µg/mL (≈ 0.0783 µM) | MIC (μg/mL) E. coli [1, 4]: 0.75 µg/mL (≈ 0.864 µM) |
| CCCCCCCc1ccc(C(=O)NC(CCNC)C(=O)N(C)[C@@H]2C(=O)N[C@@H](C)C(=O)N[C@H](C(=O)NCC#N)Cc3ccc(OCCN)c(c3)-c3cc2ccc3OCCN)c(C)c1 (single isomer, unassigned) [Compound 490-P2] | >0.50 µg/mL | – | – | – | MIC (μg/mL) E. coli [1, 4]: 8 µg/mL (≈ 9.22 µM); MIC (μg/mL) E. coli IMP ([3]; 35° C., 22 hours): >0.13 µg/mL |
| CCCCCCCCCCCNC(=O)C(CCN)C(=O)N(C)[C@@H]1C(=O)N[C@@H](C)C(=O)N[C@H](C(=O)NCC#N)Cc2ccc(OCCN)c(c2)-c2cc1ccc2OCCN (single isomer, unassigned) [Compound 497-P1] | 0.063 µg/mL (≈ 0.0768 µM) | – | – | – | MIC (μg/mL) E. coli [1, 4]: 2 µg/mL (≈ 2.44 µM); MIC (μg/mL) E. coli IMP ([3]; 35° C., 22 hours): 0.016 µg/mL (≈ 0.0195 µM) |
| CCCCCCCCCCCNC(=O)C(CCN)C(=O)N(C)[C@@H]1C(=O)N[C@@H](C)C(=O)N[C@H](C(=O)NCC#N)Cc2ccc(OCCN)c(c2)-c2cc1ccc2OCCN (single isomer, unassigned) [Compound 497-P2] | 1 µg/mL (≈ 1.22 µM) | – | – | – | MIC (μg/mL) E. coli [1, 4]: 24 µg/mL (≈ 29.3 µM); MIC (μg/mL) E. coli IMP ([3]; 35° C., 22 hours): 0.38 µg/mL (≈ 0.463 µM) |
| CCCCCCc1ccc(C(=O)N2CCC(N)C[C@@H]2C(=O)N(C)[C@@H]2C(=O)N[C@@H](C)C(=O)N[C@H](C(=O)NCC#N)Cc3ccc(OCCN)c(c3)-c3cc2ccc3OCCN)c(C)c1 (single isomer, unassigned) [Compound 526-1] | – | 16 µg/mL (≈ 18.5 µM) | 0.19 µg/mL (≈ 0.219 µM) | 0.13 µg/mL (≈ 0.15 µM) | – |
| CCCCCCc1ccc(C(=O)N2CCC(N)C[C@H]2C(=O)N(C)[C@@H]2C(=O)N[C@@H](C)C(=O)N[C@H](C(=O)NCC#N)Cc3ccc(OCCN)c(c3)-c3cc2ccc3OCCN)c(C)c1 (single isomer, unassigned) [Compound 526-2] | >0.5 µg/mL | – | – | – | MIC (μg/mL) E. coli [1, 4]: 64 µg/mL (≈ 73.9 µM); MIC (μg/mL) E. coli IMP ([3]; 35° C., 22 hours): >0.13 µg/mL |
| C[C@@H]1NC(=O)[C@@H](N(C)C(=O)[C@H](CCN)NC(=O)c2ccc3c(c2)CCCC3)c2ccc(OCCN)c(c2)-c2cc(ccc2OCCN)C[C@@H](C(=O)NCC#N)NC1=O [Compound 119] | – | 16 µg/mL (≈ 20.1 µM) | 1 µg/mL (≈ 1.26 µM) | 0.25 µg/mL (≈ 0.314 µM) | – |
| C[C@@H]1NC(=O)[C@@H](N(C)C(=O)[C@H](CCN)NC(=O)c2ccc3ccccc3c2)c2ccc(OCCN)c(c2)-c2cc(ccc2OCCN)C[C@@H](C(=O)NCC#N)NC1=O [Compound 125] | – | 16 µg/mL (≈ 20.2 µM) | 2 µg/mL (≈ 2.53 µM) | 0.25 µg/mL (≈ 0.316 µM) | – |
| C[C@@H]1NC(=O)[C@@H](N(C)C(=O)[C@H](CCN)NC(=O)CCCC2CCCCC2)c2ccc(OCCN)c(c2)-c2cc(ccc2OCCN)C[C@@H](C(=O)NCC#N)NC1=O [Compound 126] | – | 32 µg/mL (≈ 40.5 µM) | 0.5 µg/mL (≈ 0.633 µM) | 0.25 µg/mL (≈ 0.316 µM) | – |
| Cc1ccc(C(=O)N[C@@H](CCN)C(=O)N(C)[C@@H]2C(=O)N[C@@H](C)C(=O)N[C@H](C(=O)NCC#N)Cc3ccc(OCCN)c(c3)-c3cc2ccc3OCCN)c(C)c1 [Compound 128] | – | 16 µg/mL (≈ 20.8 µM) | 4 µg/mL (≈ 5.2 µM) | 0.5 µg/mL (≈ 0.649 µM) | – |
| CCc1ccc(-c2ccc(C(=O)N[C@@H](CCCN)C(=O)N(C)[C@@H]3C(=O)N[C@@H](C)C(=O)N[C@H](C(=O)NCC#N)Cc4ccc(OCCN)c(c4)-c4cc3ccc4OCCN)c(C)c2)cc1 [Compound 152] | – | 0.63 µg/mL (≈ 0.721 µM) | 0.031 µg/mL (≈ 0.0355 µM) | 0.014 µg/mL (≈ 0.016 µM) | – |
| Cc1nc(-c2ccc(C(C)(C)C)cc2)ncc1C(=O)N[C@@H](CCCN)C(=O)N(C)[C@@H]1C(=O)N[C@@H](C)C(=O)N[C@H](C(=O)NCC#N)Cc2ccc(OCCN)c(c2)-c2cc1ccc2OCCN [Compound 153] | – | – | – | – | MIC ([1]; read-out: MIC (μg/mL) E. coli): 0.19 µg/mL (≈ 0.21 µM); MIC ([2]; read-out: MIC (μg/mL) S. aureus): 0.023 µg/mL (≈ 0.0254 µM); MIC ([3]; read-out: MIC (μg/mL) E. coli IMP): 0.0059 µg/mL (≈ 0.00653 µM) |
| CCCCc1ccc(-c2ncc(C(=O)N[C@@H](CCCN)C(=O)N(C)[C@@H]3C(=O)N[C@@H](C)C(=O)N[C@H](C(=O)NCC#N)Cc4ccc(OCCN)c(c4)-c4cc3ccc4OCCN)c(C)n2)cc1 [Compound 154] | – | 0.25 µg/mL (≈ 0.277 µM) | 0.012 µg/mL (≈ 0.0133 µM) | 0.0059 µg/mL (≈ 0.00653 µM) | – |
| CCCCc1ccc(-c2ncc(C(=O)N[C@@H](CCN)C(=O)N(C)[C@@H]3C(=O)N[C@@H](C)C(=O)N[C@H](C(=O)NCC#N)Cc4ccc(OCCN)c(c4)-c4cc3ccc4OCCN)c(C)n2)cc1 [Compound 156] | – | 0.063 µg/mL (≈ 0.0708 µM) | 0.016 µg/mL (≈ 0.018 µM) | 0.0044 µg/mL (≈ 0.00494 µM) | – |
| Cc1nc(-c2ccc(-c3ccccc3)cc2)ncc1C(=O)N[C@@H](CCN)C(=O)N(C)[C@@H]1C(=O)N[C@@H](C)C(=O)N[C@H](C(=O)NCC#N)Cc2ccc(OCCN)c(c2)-c2cc1ccc2OCCN [Compound 158] | – | 0.11 µg/mL (≈ 0.121 µM) | 0.031 µg/mL (≈ 0.0341 µM) | 0.002 µg/mL (≈ 0.0022 µM) | – |
| CCCc1ccc(-c2ncc(C(=O)N[C@@H](CCN)C(=O)N(C)[C@@H]3C(=O)N[C@@H](C)C(=O)N[C@H](C(=O)NCC#N)Cc4ccc(OCCN)c(c4)-c4cc3ccc4OCCN)c(C)n2)cc1 [Compound 161] | – | 0.13 µg/mL (≈ 0.148 µM) | 0.031 µg/mL (≈ 0.0354 µM) | 0.003 µg/mL (≈ 0.00342 µM) | – |
| C[C@@H]1NC(=O)[C@@H](N(C)C(=O)[C@H](CCN)NC(=O)c2cccc3ccccc23)c2ccc(OCCN)c(c2)-c2cc(ccc2OCCN)C[C@@H](C(=O)NCC#N)NC1=O [Compound 492] | 3 µg/mL (≈ 3.79 µM) | – | 2 µg/mL (≈ 2.53 µM) | – | – |
